Entries after “also recorded” stand apart in the source; their conditions may differ.
How the values were obtained:
[1] = pH-dependent emission (pKa by Henderson-Hasselbalch equation); type: physicochemical; details: from emission spectra in PBS buffer pH 3.0 to 8.0, room temperature
Experimental: The emission spectra of the probes in PBS buffer (pH from 3.0 to 8.0) were determined at room temperature. The pKa value was calculated using the Henderson–Hosslbalch equation ([Finikova et al., 2003]): pH = pKa + lg ([A]/[HA]).

[2] = target: T1, α-glucosidase (Saccharomyces cerevisiae, UniProt P53341); assay: Fluorescence competitive binding assay against α-glucosidase/LD02 complex
T1 construct: purchased Sigma-Aldrich
Experimental: (§1) All chemicals and solvents were obtained from commercial suppliers without further purification. α-Glucosidase from Saccharomyces cerevisiae (EC 3.2.1.20) was purchased from Sigma-Aldrich. p-Nitrophenyl-α-D-[…] (PNPG) was obtained from Abcam. Nuclear magnetic resonance (NMR) spectra of new compounds were recorded in DMSO-d 6 using a Bruker Advance 500 MHz spectrometer. High-resolution mass spectrometry (HRMS) was measured on a Thermo Fisher Scientific Q Exactive Orbitrap mass spectrometer. UV–Vis absorption spectra were measured using an Hitachi 3,900 absorption spectrophotometer (Tokyo, Japan). Fluorescence spectra were recorded using an Edinburgh FLS1000 fluorescence spectrophotometer (Edinburgh, UK).
The binding complexes of α-glucosidase with LD02 were prepared by adding α-glucosidase (final concentration = 3.5 μM) to the solution of LD02 (10 μM) in 10 mM PBS buffer (pH = 7.4). The dissociation constant of a competitor to α-glucosidase can be determined by titrating it against binding complexes of α-glucosidase with LD02, and can be calculated according to the Cheng–Prusoff equation ([Cheng and Prusoff, 1973]).

[3] = target: T1, α-glucosidase; assay: Fluorescence titration of the probes with α-glucosidase; type: binding; details: for increase of maximum emission intensity on addition of α-glucosidase: 3.5 μM α-glucosidase, PBS buffer
Experimental: as §1
α-Glucosidase protein was titrated to the solution of the testing probe (LD01 or LD02) (10 μM), and the fluorescence emission spectra were recorded from 380 to 700 nm under excitation of 365 nm. The binding constants of Ka were obtained from a double logarithm regression curve ([Wei et al., 2010]): 1g[(I−Io)/Io] = 1gKa + n 1g[G],
where I and I0 are the current and initial fluorescence intensity, respectively, K a is the binding constant, n is the number of binding sites for each α-glucosidase, and [G] is the total concentration of the α-glucosidase protein.

[4] = target: T2, α-Glucosidase from Saccharomyces cerevisiae (EC 3.2.1.20) (Saccharomyces cerevisiae, UniProt P53341); assay: α-Glucosidase inhibition efficiency test (PNPG substrate, absorbance at 405 nm); type: biochemical; details: 0.1 U/mL enzyme, 1 mmol/L PNPG, 37°C, triplicate mean; read-out: IC50 against α-glucosidase
T2 construct: purchased Sigma-Aldrich
Experimental: All chemicals and solvents were obtained from commercial suppliers without further purification. α-Glucosidase from Saccharomyces cerevisiae (EC 3.2.1.20) was purchased from Sigma-Aldrich. p-Nitrophenyl-α-D-galactopyranoside (PNPG) was obtained from Abcam.
Stock solutions of testing compounds were prepared in DMSO. Enzyme solution of α-glucosidase (2 U/mL) was prepared in 0.1 M PBS buffer. Nitrophenol-α-D-glucoside (PNPG) was dissolved in 0.1 M PBS buffer (pH 6.8) to obtain the substrate solution (4 mM). In total, 10 μL of α-glucosidase (final concentration 0.1 U/mL), 130 μL of PBS buffer, and 10 μL of the sample solution were added into 96-well plates in succession and incubated at 37°C for 10 min. Then 50 μL of substrate solution (PNPG final concentration 1 mmol/L) was added, followed by incubation at 37°C for another 30 min. The enzymatic activity was quantified by measuring the absorbance of the reaction mixture at 405 nm using a multimodel reader. The inhibition rate was calculated using the following equation: Inhibition rate (%) = [(A1−A0)/A0] × 100%, where A1 and A0 are the absorbance values of testing samples and blank control, respectively. The IC50 value was obtained from a plot of the inhibition rate versus the sample concentration curve. The assays were carried out in triplicate and the mean values were given.

[5] = system: glucose oxidase (GOD), polyphenol oxidase (TKY), pepsin (PEP), Cys, GSH, Lys, Ca2+, Cu2+, Fe3+, Mg2+, Zn2+; assay: Binding selectivity of LD02: emission in the presence of potential competitors; details: 10 μM LD02; enzymes 3.5 μM, small molecules and ions 1 mM; 10 mM PBS pH 7.4
Experimental: To verify the binding specificity of LD02 toward α-glucosidase, emission spectra of LD02 in the presence of α-glucosidase or various potential competitors such as other enzymes (including glucose oxidase (GOD), polyphenol oxidase (TKY), and pepsin (PEP)), and small molecules of interest (including Cys, GSH, Lys, Ca^2+, Cu^2+, Fe^3+, Mg^2+, and Zn^2+), were collected in 10 mM PBS buffer (pH = 7.4) at room temperature.
FIGURE 5 (A) Fluorescence spectra of LD02 (10 μM) in the presence of various species: α-glucosidase (α-Glu) (3.5 μM), GOD (3.5 μM), TKY (3.5 μM), PEP (3.5 μM), Cys (1 mM), GSH (1 mM), Lys (1 mM), Ca^2+ (1 mM), Cu^2+ (1 mM), Fe^3+ (1 mM), Mg^2+ (1 mM), and Zn^2+ (1 mM) in PBS buffer. (B) The plot of (I-I0)/I0 in A (λex = 365 nm, λem = 457 nm).

T1 sequence (P53341 whole entry): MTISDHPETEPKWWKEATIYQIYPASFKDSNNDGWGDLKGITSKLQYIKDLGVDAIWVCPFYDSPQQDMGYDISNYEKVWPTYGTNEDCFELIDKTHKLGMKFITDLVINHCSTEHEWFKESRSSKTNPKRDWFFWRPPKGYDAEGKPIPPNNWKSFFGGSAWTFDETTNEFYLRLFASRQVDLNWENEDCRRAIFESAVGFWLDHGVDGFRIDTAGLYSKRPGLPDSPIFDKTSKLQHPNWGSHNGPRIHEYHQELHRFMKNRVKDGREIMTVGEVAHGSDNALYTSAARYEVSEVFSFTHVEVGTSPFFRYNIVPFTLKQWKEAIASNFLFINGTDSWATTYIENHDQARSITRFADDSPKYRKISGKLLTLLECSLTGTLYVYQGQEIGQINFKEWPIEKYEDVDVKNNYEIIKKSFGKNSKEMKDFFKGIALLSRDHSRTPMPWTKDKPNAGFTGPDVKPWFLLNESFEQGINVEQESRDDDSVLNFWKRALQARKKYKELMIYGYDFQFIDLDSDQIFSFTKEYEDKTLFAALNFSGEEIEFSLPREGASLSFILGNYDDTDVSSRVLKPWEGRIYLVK
T2 sequence (P53341 whole entry): as above

SMILES	pKa [1]	Kd [2] [µM]	increase of maximum emission intensity on addition of α-glucosidase ([3]; 10 μM probe)	IC50 [4] [µM]	effect of potential competitors on emission band and intensity (selectivity toward α-glucosidase) [5]	Kd [3] [µM]	binding ratio (n, number of binding sites) to α-glucosidase ([3]; double logarithm regression, 10 μM probe, PBS)
CCN(CC)c1ccc2cc(/C(C)=N/OC(=O)/C=C/c3ccc(Br)cc3)c(=O)oc2c1 [LD01]	4.2	6.31	no obvious emission changes; also recorded: does not have such changes	4.6 ± 0.5			
C/C(=N\OC(=O)/C=C/c1ccc(N(C)C)cc1)c1cc2ccccc2oc1=O [LD02]	4.6		2.7 times	32.5 ± 0.8	no obvious effect	158	approximately 0.5

— publication PMC9273884, “Responsive Fluorescent Coumarin–Cinnamic Acid Conjugates for α-Glucosidase Detection” (Frontiers in Chemistry, 2022)
